Test results published in patent US7666617B2, “Devices and methods for profiling enzyme substrates” (University of Maryland, Baltimore County, priority 2005, dated 2010).

Experiments:
endogenous kinase NM23 = test: Endogenous NM23 kinase signal (internal control) in the CK2α reverse in-gel kinase assay; conditions: 75 μM apigenin in assay buffer; LNCaP lysate
Protocol: 300 μg of LNCaP lysate was treated with bacteriophage λ phosphatase at 30° C. for 1 hour. The lysate was then precipitated with TCA, resolublized in IEF rehydration buffer and applied to CKα reverse in-gel kinase assay with 25 μg of recombinant human CK2α cast in the gel. 75 μM apigenin was added in the reverse in-gel kinase assay buffer and a parallel assay was performed with same volume of vehicle (DMSO) added to the reaction buffer.

Protein Kinase A (PKA) = test: PKA RIKA of TBB-treated LNCaP cell extract; assay type: cell-based; conditions: TBB-treated vs vehicle-treated LNCaP lysate; RIKA gel with 50 μg/ml recombinant PKA
Protocol: FIG. 8A-8B, an equivalent mass of protein used for the RIKA shown in FIGS. 7A-7E was applied to a RIKA gel containing 50 μg/ml recombinant PKA. Arrows designates the activity of the endogenous kinase NM23 H1 which serves as an internal control. FIG. 8A is an autoradiogram of the PKA RIKA using the vehicle-treated lysates.

Row | Structure (SMILES) | effect on endogenous kinase NM23 signal (endogenous kinase NM23) | signal intensity of proteins detected in PKA RIKA, TBB-treated extract (Protein Kinase A (PKA))
1 | O=c1cc(-c2ccc(O)cc2)oc2cc(O)cc(O)c12 [Apigenin, apigenin] | not affected | 
2 | Brc1c(Br)c(Br)c2[nH]nnc2c1Br [TBB, 4,5,6,7 tetrabromobenzotriazole] |  | No increase
